In one data set the target is T1, PlGF (Homo sapiens, UniProt P49763).
T1 construct: purchased R&D Systems
T1 sequence (P49763 19-170 isoform P49763-3 limits assumed): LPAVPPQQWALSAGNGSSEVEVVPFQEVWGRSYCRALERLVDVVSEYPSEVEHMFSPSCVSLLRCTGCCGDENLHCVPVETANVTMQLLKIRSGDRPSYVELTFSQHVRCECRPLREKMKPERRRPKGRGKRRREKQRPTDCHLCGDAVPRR
The data set is described as follows: Free peptide binding ELISA (FLAG epitope probe), PlGF-coated wells. To be noted: peptide with C-terminal FLAG epitope. How it is done:
Competition assays were done with 2.5 or 25 U/ml heparin (Sigma, St. Louis, Mo.). BP1, 3, 4, and a scrambled version of BP3 (scrBP3) were synthesized with a linker followed by the FLAG epitope ([…] SEQ ID NO:5) at the C-terminus. Thirty minutes after addition of the first reagent, the second reagent was added, followed by another 30 minute incubation. Peptide binding was assessed by probing for the FLAG epitope (Prickett et al., Biotechniques 7:580-9, 1989; Castrucci et al., J. Virol. 66:4647-53, 1992). Absorbance was read at 490 nm.
(In general: In an ELISA, binding on a coated surface is turned into a signal by an enzyme label.)

Data set [1] concerns MCF-7 human breast cancer cells. In kind it is cell-based. To be noted: human, 24 h, 2 μM. The method, then: MTT (3-(4,5-dimethylthiazolyl-2)-2,5-diphenyltetrazolium bromide, Sigma) assays were performed under conditions of low serum (1%) to determine PlGF effects on cell viability, the toxicity of the peptides, and their effect on PlGF-mediated breast tumor cell growth (Mosmann, 1983, J Immunol Meth 65:55-63; Modrak et al., 2000, Biochem Biophys Res Commun 268:603-606). Peptide concentration was 1-2 μM, and the concentration of exogenous PlGF was 2 nM. The human breast tumor lines tested were: MDA-MB-231, MDA-MB-468 and MCF-7 (ATCC, Mannasses, Va.). Briefly, 96-well plates were seeded with 5-10×10^4 cells/ml in medium containing 1% fetal bovine serum (FBS). After 24 h, cells were treated with individual peptides at a concentration of 1-2 μM (4 binding peptides), in quadruplicate, and/or rhuPlGF at a 2-nM concentration. After the designated time points, 0.5 mg/ml MTT (5 mg/ml stock diluted 1:10 in RPMI medium with no serum) was added to the wells (Mosmann, 1983). When purple crystals were clearly visible in the cells, and the plate appeared to be fully developed, the reaction was terminated with acid alcohol (0.04M HCl in isopropanol). Absorbance of the dissolved crystals was read at 570 nm. The 24-h time point was chosen because the in vitro effects of PlGF on tumor cell migration were measurable at this time (see wound-healing assay below). These assays were also performed using medium with 10% FBS, with similar results.

A further data set concerns MDA-MB-468. Description: Wound-healing (motility) assay, MDA-MB-468. To be noted: for Relative activity: unit assumed; for Migrating cells: 18-24 h. In kind it is cell-based, human. The method, then:
MCF-7, MDA-MB-23 1, and MDA-MB-468 breast tumor cell lines or HECs were seeded onto sterile glass coverslips in Petri dishes or six-well plates. When the cells were 70-80% confluent, the monolayers were scratched with a sterile plastic pipet tip.
Inhibitor concentrations were 50 μM PD98059 (PD98) (mitogen activated protein kinase-kinase 1 [MEK1] inhibitor), 5 nM Wortmannin (phosphatidyl inositol 3 kinase [PI3K] inhibitor), or human recombinant soluble Flt-1 (sFlt-1) (R&D Systems). […] Cells were pre-incubated with PD98 and Wortmannin for 15-30 min before addition of PlGF. Stained (Wright-Giemsa) and mounted coverslips were examined microscopically. Five to ten 100× fields were evaluated by counting the number of cells separated from the wound edges and which appeared to be migrating toward the center of the wound. Results are reported as the average number of cells migrating into the wound/100× field. In some cases data from separate experiments were combined to accommodate inclusion of various treatments in the tables.
Antibody concentration was 1 μg/ml. MEK1 inhibitor, PD98059 (PD98), 50 μM. PI3K inhibitor, Wortmannin, 5 nM. […] Values for antibody and inhibitor treatments were from separate experiments which included all relevant controls. […] UT denotes untreated controls. *P<0.01 (ANOVA) compared to UT; † P<0.02 (ANOVA) compared to PlGF only. ‡ P<0.001 (ANOVA) compared to PlGF only.

The test system of the next data set is MCF-7. The data set is described as follows: Matrigel cell invasion assay, MCF-7. In kind it is cell-based, human. To be noted: 48 h. The method, then: Cellular invasion was determined by addition of 5×10^4cells to growth factor-reduced Matrigel invasion chambers (BD Biosciences Discovery Labware, Bedford, Mass.) (Taylor et al., 2003b; Passaniti et al., 1992, Lab Invest 67, 519-528). Additives to the Matrigel® plugs were pre-incubated together in a total volume of 100 μl PBS at RT for 10 min, after which each additive was added to the Matrigel. Growth factors (2.0 or 0.2 nM), peptide (2 μg/ml), or antibody (1 μg/ml) were added to cells in low serum (0.1% fetal bovine serum [FBS]) medium. Baseline and chemoattractant-based invasion (10% FBS) were included. The number of invading cells was determined by counting the number of cells on the bottom of the invasion chamber membrane after staining at 100× magnification after 24 h (MDA-MB-231) or 48 h (MCF-7, MDA-MB-468). The results of three to five separate experiments are presented.

The subject of data set [2] is microvessels in PlGF-containing Matrigel plugs. Description: Matrigel basement membrane plug angiogenesis assay. Type of data set: in vivo, nude mice. To be noted: PlGF-containing implants ± BP1, s.c.; PBS controls 16.2±11.4. An excerpt:
To further investigate the effect of PlGF binding peptides on endothelial cell migration and angiogenesis, Matrigel basement membrane plugs containing PlGF, BP1, BP2, or PBS were implanted s.c. on the flanks of nude mice. The number of interior microvessels in the PBS controls was 16.2±11.4/mm^2. PlGF-only implants contained 28.9±17.2/mm^2 (1.8-fold vs. mock-treated implants), and implants with PlGF and BP1 contained only 12.3±13.0 microvessels/mm^2 (P<0.02).

Ends that are not written are not given here.

Regarding SHRYRLAIQLHASDSSSSCV [BP1], at PlGF, the “binding to PlGF (A490)” value stood at 0.100±0.058. In data set [1], the “viability lowered, peptide alone” value was 21%. The Relative activity with MDA-MB-468 (PlGF 2 nM ± test agent, relative to PlGF-only value) came out at 97%; in the data set with MDA-MB-468 (VEGF 2 nM ± test agent, relative to VEGF-only value), 113%. For the same sequence, the Migrating cells came out at 14.3 ± 8.1 cells/100× field in the data set with MDA-MB-468 (growth factor PlGF 2 nM ± test agent (Flt-1 2 nM, peptide 2 μM, antibody 1 μg/ml)) and 15.8 ± 9.5 cells/100× field with MDA-MB-468 (growth factor VEGF 2 nM ± test agent). Further, the “Average fold-change in the number of cells on the membrane compared to untreated controls” value in the data set on MCF-7 (PlGF 0.2 nM ± peptide 2 μg/ml) was 0.3 ± 0.0 fold; with MCF-7 (peptide 2 μg/ml alone) it was 0.7 ± 0.4 fold. In addition, the interior microvessels in data set [2] is recorded as 12.3±13.0 /mm^2.

Values taken from patent US7642239B2, “Inhibition of placenta growth factor (PLGF) mediated metastasis and/or angiogenesis” (Center for Molecular Medicine and Immunology, priority 2005, dated 2010).
